From patent publication US12446584B2, “Termiticide composition and methods for treating termites” (ADAMA MAKHTESHIM LTD., priority 2013, dated 2025)
Like-named read-outs stand apart in the source and are kept apart here.

Assays:
Assay type in all cases: in vivo
[1] = system: Formosan subterranean termites (Coptotermes formosanus); assay: Thin plate bioassay; details: 0.05% solution
Description: (§1) A laboratory study was conducted, using recently collected R. flavipes and C. formosanus. Thin plate bioassays were assembled using 0.6 cm glass and 0.6 cm clear Lexan. A sheet of 20.3×66 cm glass was used for the bottom. Two pieces of 2.5×61 cm glass were laid along the long edges, and two pieces of […]. Each arena had 450 g of screened sand evenly applied, and moistened with deionized water to help hold it in place during construction of the arenas. Fisher brand tongue depressors, cut in half, were used as a food source for the termites, and placed at one end of the arena. Prior to adding the Lexan top sheets, 0.6 cm holes were drilled at one end, and three 0.6 cm treatment apertures were drilled equally spaced apart at the center line. One 8 cm Petri dish with a 0.6 cm hole drilled in the bottom was lined up with the hole at the end of the top sheet, and glued down. Glue was allowed to dry for 72 hours. Large binder clips were used to hold the arena together.
(§2) Termiticide solutions were prepared as follows: Fipronil 0.017%; Fipronil 0.03%; Imidacloprid 0.05%; Imi-Fip 0.067% (Imidacloprid 0.05%, Fipronil 0.017%); and Untreated Control (water only). Ten ml of each finished solution of termiticide were applied to each arena: each of the three treatment apertures received 3.3 ml of termiticide. The treatments were allowed to dry for 24 hours, and the treatment apertures were covered with a 2.5×7.5 cm microscope slide. In each Petri dish, 500 worker and 15 soldier termites were added, using either R. flavipes or C. formosanus. Each treatment was replicated four times. Data regarding distance tunneled and mortality were collected daily for eight days. Data was analyzed using Analysis of Variance (ANOVA) and means were separated by Tukey's HSD (Honest Significant Difference test (IBM SPSS v 19).

[2] = system: Eastern subterranean termites (Reticulitermes flavipes); assay: Thin plate bioassay; details: 0.05% solution
Description: as §1, §2

[3] = system: Eastern Subterranean Reticulitermes flavipes termites; assay: Transfer effects among nestmates (donor/recipient Petri dish arenas); details: donors treated with 50 ppm; for mortality at 50 ppm: Reticulitermes flavipes
Description: (§3) The purpose of this study was to determine whether there is transference of […] among nestmates of subterranean termites. Arenas for this study consisted of a 15 cm Petri dish. […] Donor and untreated marked control termites were marked using RustOleum® Marking Paint, using methodology described by Keefer et al. 2012.
(§4) Two untreated soldier termites for each species were added to each arena to simulate colony dynamics. Post-treatment observations for mortality were made at 4 h and then daily through day 7.

[4] = system: Formosan Coptotermes formosanus termites; assay: as above; details: donors treated with 50 ppm; for mortality at 50 ppm: Coptotermes formosanus
Description: as §3, §4

[5] = 4 h, by treatment (all ratios), 4 h, read-out: Mean % mortality of donors and recipients
[6] = 4 h, donor:recipient ratio 1:19, 4 h, read-out: Mean total % mortality of donors and recipients
[7] = 4 h, donor:recipient ratio 5:15, 4 h, read-out: Mean total % mortality of donors and recipients
[8] = 4 h, donor:recipient ratio 10:10, 4 h, read-out: Mean total % mortality of donors and recipients
[9] = 4 h, donor:recipient ratio 15:5, 4 h, read-out: Mean total % mortality of donors and recipients
[10] = 24 h, by treatment (all ratios), 1 d, read-out: Mean % mortality of donors and recipients
[11] = 24 h, donor:recipient ratio 1:19, 1 d, read-out: Mean total % mortality of donors and recipients
[12] = 24 h, donor:recipient ratio 5:15, 1 d, read-out: Mean total % mortality of donors and recipients
[13] = 24 h, donor:recipient ratio 10:10, 1 d, read-out: Mean total % mortality of donors and recipients
[14] = 24 h, donor:recipient ratio 15:5, 1 d, read-out: Mean total % mortality of donors and recipients
[15] = 48 h, by treatment (all ratios), 2 d, read-out: Mean % mortality of donors and recipients
[16] = 48 h, donor:recipient ratio 1:19, 2 d, read-out: Mean total % mortality of donors and recipients
[17] = 48 h, donor:recipient ratio 5:15, 2 d, read-out: Mean total % mortality of donors and recipients
[18] = 48 h, donor:recipient ratio 10:10, 2 d, read-out: Mean total % mortality of donors and recipients
[19] = 48 h, donor:recipient ratio 15:5, 2 d, read-out: Mean total % mortality of donors and recipients
[20] = 72 h, by treatment (all ratios), 3 d, read-out: Mean % mortality of donors and recipients
[21] = 72 h, donor:recipient ratio 1:19, 3 d, read-out: Mean total % mortality of donors and recipients
[22] = 72 h, donor:recipient ratio 5:15, 3 d, read-out: Mean total % mortality of donors and recipients
[23] = 72 h, donor:recipient ratio 10:10, 3 d, read-out: Mean total % mortality of donors and recipients
[24] = 72 h, donor:recipient ratio 15:5, 3 d, read-out: Mean total % mortality of donors and recipients
[25] = 96 h, by treatment (all ratios), 4 d, read-out: Mean % mortality of donors and recipients
[26] = 96 h, donor:recipient ratio 1:19, 4 d, read-out: Mean total % mortality of donors and recipients
[27] = 96 h, donor:recipient ratio 5:15, 4 d, read-out: Mean total % mortality of donors and recipients
[28] = 96 h, donor:recipient ratio 10:10, 4 d, read-out: Mean total % mortality of donors and recipients
[29] = 96 h, donor:recipient ratio 15:5, 4 d, read-out: Mean total % mortality of donors and recipients
[30] = 120 h, by treatment (all ratios), 5 d, read-out: Mean % mortality of donors and recipients
[31] = 120 h, donor:recipient ratio 1:19, 5 d, read-out: Mean total % mortality of donors and recipients
[32] = 120 h, donor:recipient ratio 5:15, 5 d, read-out: Mean total % mortality of donors and recipients
[33] = 120 h, donor:recipient ratio 10:10, 5 d, read-out: Mean total % mortality of donors and recipients
[34] = 120 h, donor:recipient ratio 15:5, 5 d, read-out: Mean total % mortality of donors and recipients
[35] = 144 h, by treatment (all ratios), 6 d, read-out: Mean % mortality of donors and recipients
[36] = 144 h, donor:recipient ratio 1:19, 6 d, read-out: Mean total % mortality of donors and recipients
[37] = 144 h, donor:recipient ratio 5:15, 6 d, read-out: Mean total % mortality of donors and recipients
[38] = 144 h, donor:recipient ratio 10:10, 6 d, read-out: Mean total % mortality of donors and recipients
[39] = 144 h, donor:recipient ratio 15:5, 6 d, read-out: Mean total % mortality of donors and recipients
[40] = 168 h, by treatment (all ratios), 7 d, read-out: Mean % mortality of donors and recipients
[41] = 168 h, donor:recipient ratio 1:19, 7 d, read-out: Mean total % mortality of donors and recipients
[42] = 168 h, donor:recipient ratio 5:15, 7 d, read-out: Mean total % mortality of donors and recipients
[43] = 168 h, donor:recipient ratio 10:10, 7 d, read-out: Mean total % mortality of donors and recipients
[44] = 168 h, donor:recipient ratio 15:5, 7 d, read-out: Mean total % mortality of donors and recipients

O=[N+]([O-])NC1=NCCN1Cc1ccc(Cl)nc1 [Imidacloprid, N-[1-[(6-Chloro-3-pyridyl)methyl]-4,5-dihydroimidazol-2-yl]nitramide]
Mean % mortality ([1]; 1 day post-treatment): 0.80 a % | Mean % mortality ([1]; 2 days post-treatment): 5.30 b % | Mean % mortality ([1]; 3 days post-treatment): 23.25 a % | Mean % mortality ([1]; 4 days post-treatment): 30.00 a % | Mean % mortality ([1]; 5 days post-treatment): 55.00 a % | Mean % mortality ([1]; 6 days post-treatment): 88.75 b % | Mean % mortality ([1]; 7 days post-treatment): 100.00 a % | Mean % mortality ([1]; 8 days post-treatment): 100.00a % | Mean % mortality ([2]; 1 day post-treatment): 6.35 a % | Mean % mortality ([2]; 2 days post-treatment): 12.00 b % | Mean % mortality ([2]; 3 days post-treatment): 75.00 a % | Mean % mortality ([2]; 4 days post-treatment): 80.00 a % | Mean % mortality ([2]; 5 days post-treatment): 80.00 c % | Mean % mortality ([2]; 6 days post-treatment): 100.00 a % | Mean % mortality ([2]; 7 days post-treatment): 100.00 a % | Mean % mortality ([2]; 8 days post-treatment): 100.00 a % | mortality at 50 ppm [3, 5]: 27% | mortality at 50 ppm [3, 6]: 10% | mortality at 50 ppm [3, 7]: 21.2% | mortality at 50 ppm [3, 8]: 43.8% | mortality at 50 ppm [3, 9]: 33.8% | mortality at 50 ppm [3, 10]: 64.4% | mortality at 50 ppm [3, 11]: 30% | mortality at 50 ppm [3, 12]: 51.2% | mortality at 50 ppm [3, 13]: 80% | mortality at 50 ppm [3, 14]: 96.2% | mortality at 50 ppm [3, 15]: 64.4% | mortality at 50 ppm [3, 16]: 30% | mortality at 50 ppm [3, 17]: 51.2% | mortality at 50 ppm [3, 18]: 80% | mortality at 50 ppm [3, 19]: 96.2% | mortality at 50 ppm [3, 20]: 73.4% | mortality at 50 ppm [3, 21]: 33.8% | mortality at 50 ppm [3, 22]: 60% | mortality at 50 ppm [3, 23]: 100% | mortality at 50 ppm [3, 24]: 100% | mortality at 50 ppm [3, 25]: 73.4% | mortality at 50 ppm [3, 26]: 72.5% | mortality at 50 ppm [3, 27]: 71.2% | mortality at 50 ppm [3, 28]: 100% | mortality at 50 ppm [3, 29]: 100% | mortality at 50 ppm [3, 30]: 90.9% | mortality at 50 ppm [3, 31]: 76.2% | mortality at 50 ppm [3, 32]: 87.5% | mortality at 50 ppm [3, 33]: 100% | mortality at 50 ppm [3, 34]: 100% | mortality at 50 ppm [3, 35]: 98.4% | mortality at 50 ppm [3, 36]: 98.8% | mortality at 50 ppm [3, 37]: 95% | mortality at 50 ppm [3, 38]: 100% | mortality at 50 ppm [3, 39]: 100% | mortality at 50 ppm [3, 40]: 100% | mortality at 50 ppm [3, 41]: 100% | mortality at 50 ppm [3, 42]: 100% | mortality at 50 ppm [3, 43]: 100% | mortality at 50 ppm [3, 44]: 100% | Mean % mortality of donors and recipients ([3]; by treatment (all ratios), 4 h): 27.18 a % | mortality at 50 ppm [4, 5]: 9% | mortality at 50 ppm [4, 6]: 0% | mortality at 50 ppm [4, 7]: 3.75% | mortality at 50 ppm [4, 8]: 17.5% | mortality at 50 ppm [4, 9]: 17.5% | mortality at 50 ppm [4, 10]: 32.5% | mortality at 50 ppm [4, 11]: 1.25% | mortality at 50 ppm [4, 12]: 12.5% | mortality at 50 ppm [4, 13]: 85% | mortality at 50 ppm [4, 14]: 31.2% | mortality at 50 ppm [4, 15]: 52.5% | mortality at 50 ppm [4, 16]: 5% | mortality at 50 ppm [4, 17]: 22.5% | mortality at 50 ppm [4, 18]: 96.2% | mortality at 50 ppm [4, 19]: 86.2% | mortality at 50 ppm [4, 20]: 67.2% | mortality at 50 ppm [4, 21]: 33.8% | mortality at 50 ppm [4, 22]: 37.5% | mortality at 50 ppm [4, 23]: 100% | mortality at 50 ppm [4, 24]: 100% | mortality at 50 ppm [4, 25]: 76.2% | mortality at 50 ppm [4, 26]: 72.5% | mortality at 50 ppm [4, 27]: 55% | mortality at 50 ppm [4, 28]: 100% | mortality at 50 ppm [4, 29]: 100% | mortality at 50 ppm [4, 30]: 87.5% | mortality at 50 ppm [4, 31]: 82.5% | mortality at 50 ppm [4, 32]: 67.5% | mortality at 50 ppm [4, 33]: 100% | mortality at 50 ppm [4, 34]: 100% | mortality at 50 ppm [4, 35]: 96.2% | mortality at 50 ppm [4, 36]: 93.8% | mortality at 50 ppm [4, 37]: 91.2% | mortality at 50 ppm [4, 38]: 100% | mortality at 50 ppm [4, 39]: 100% | mortality at 50 ppm [4, 40]: 97% | mortality at 50 ppm [4, 41]: 95% | mortality at 50 ppm [4, 42]: 96.2% | mortality at 50 ppm [4, 43]: 100% | mortality at 50 ppm [4, 44]: 100% | Mean % mortality of donors and recipients ([4]; by treatment (all ratios), 4 h): 9.68 b % | Mean % mortality of donors and recipients ([4]; by treatment (all ratios), 7 d): 97.81 a %
